Measured values from PubChem BioAssay AID194 (DTP/NCI, 2004).
Values joined by “and” are separate entries in the source; they are usually repeats but may differ in a detail not shown here. Identical values can stand only once. Inconclusive results are not listed.

Test system: BDF1 mice, B16 melanoma s.c., survival/tumor T/C
Assay: NCI In Vivo Anticancer Drug Screen. Data for tumor model B16 Melanoma (subcutaneous) in B6D2F1 (BDF1) mice
Description: The antitumor activity of compounds was measured in mice bearing transplantable tumors. Survival or tumor size were measured and the results are expressed as the measurement made in the treated group (T) divided by the measurement made in the vehicle treated control group (C). The tumor model used in this assay is B16 Melanoma (subcutaneous) in B6D2F1 (BDF1) mice

With `C[n+]1c(/C=C\C=C\N2CCCCC2)sc2ccccc21` the T/C (endpoint: median survival time, dose: 0.01 mg/kg/injection, schedule: Q01DX009 (ip), vehicle: Klucel (hydroxypropylcellulose) (HPC), higher = longer survival) was 188 % of control, the T/C (endpoint: median survival time, dose: 0.02 mg/kg/injection, schedule: Q01DX009 (ip), vehicle: Klucel (hydroxypropylcellulose) (HPC), higher = longer survival) was 170 % of control and the T/C (endpoint: median survival time, dose: 0.05 mg/kg/injection, schedule: Q01DX009 (ip), vehicle: Klucel (hydroxypropylcellulose) (HPC), higher = longer survival) was 160 % of control. For the same compound, the T/C (endpoint: median survival time, dose: 0.1 mg/kg/injection, schedule: Q01DX009 (ip), vehicle: Klucel (hydroxypropylcellulose) (HPC), higher = longer survival) was 171 % of control and the T/C (endpoint: median survival time, dose: 0.4 mg/kg/injection, schedule: Q01DX009 (ip), vehicle: Klucel (hydroxypropylcellulose) (HPC), higher = longer survival) was 121 % of control.

In the case of `Cc1c(N)nc([C@H](CC(N)=O)NC[C@H](N)C(N)=O)nc1C(=O)N[C@H](C(=O)N[C@H](C)[C@@H](O)[C@H](C)C(=O)N[C@H](C(=O)NCCc1nc(-c2nc(C(=O)NCCC[S+](C)C)cs2)cs1)[C@@H](C)O)C(OC1OC(CO)C(O)C(O)C1OC1OC(CO)C(O)C(OC(N)=O)C1O)c1cnc[nH]1` (stereo not given in full), the T/C (endpoint: median survival time, dose: 1.0 mg/kg/injection, schedule: Q01DX009 (ip), vehicle: saline, higher = longer survival) is reported as 120 % of control, the T/C (endpoint: median survival time, dose: 2.0 mg/kg/injection, schedule: Q01DX009 (ip), vehicle: water, higher = longer survival) is reported as 152 % of control and 160 % of control and the T/C (endpoint: median survival time, dose: 3.0 mg/kg/injection, schedule: Q01DX005 (ip), vehicle: water, higher = longer survival) is reported as 118 % of control. The T/C (endpoint: median survival time, dose: 3.0 mg/kg/injection, schedule: Q01DX009 (ip), vehicle: saline, higher = longer survival) was 119 % of control, the T/C (endpoint: median survival time, dose: 3.0 mg/kg/injection, schedule: Q01DX009 (ip), vehicle: water, higher = longer survival) was 96 % of control and the T/C (endpoint: median survival time, dose: 3.12 mg/kg/injection, schedule: Q01DX009 (ip), vehicle: Klucel (hydroxypropylcellulose) (HPC), higher = longer survival) was 171 % of control. The T/C (endpoint: median survival time, dose: 4.0 mg/kg/injection, schedule: Q01DX009 (ip), vehicle: water, higher = longer survival) was 165 % of control and 179 % of control, the T/C (endpoint: median survival time, dose: 6.0 mg/kg/injection, schedule: Q01DX005 (ip), vehicle: water, higher = longer survival) was 118 % of control and the T/C (endpoint: median survival time, dose: 6.0 mg/kg/injection, schedule: Q01DX009 (ip), vehicle: saline, higher = longer survival) was 121 % of control. The T/C (endpoint: median survival time, dose: 6.0 mg/kg/injection, schedule: Q01DX009 (ip), vehicle: water, higher = longer survival) was 109 % of control, the T/C (endpoint: median survival time, dose: 6.25 mg/kg/injection, schedule: Q01DX009 (ip), vehicle: Klucel (hydroxypropylcellulose) (HPC), higher = longer survival) was 175 % of control and the T/C (endpoint: median survival time, dose: 8.0 mg/kg/injection, schedule: Q01DX009 (ip), vehicle: water, higher = longer survival) was 162 % of control and 185 % of control. For the same compound, the T/C (endpoint: median survival time, dose: 12.0 mg/kg/injection, schedule: Q01DX009 (ip), vehicle: water, higher = longer survival) was 112 % of control, the T/C (endpoint: median survival time, dose: 12.5 mg/kg/injection, schedule: Q01DX009 (ip), vehicle: Klucel (hydroxypropylcellulose) (HPC), higher = longer survival) was 168 % of control and the T/C (endpoint: median survival time, dose: 16.0 mg/kg/injection, schedule: Q01DX009 (ip), vehicle: water, higher = longer survival) was 158 % of control (2×) and 159 % of control. For the same compound, the T/C (endpoint: median survival time, dose: 16.0 mg/kg/injection, schedule: Q01DX010 (ip), vehicle: water, higher = longer survival) was 93 % of control, the T/C (endpoint: median survival time, dose: 20.0 mg/kg/injection, schedule: Q01DX009 (ip), vehicle: saline, higher = longer survival) was 161 % of control and the T/C (endpoint: median survival time, dose: 24.0 mg/kg/injection, schedule: Q01DX009 (ip), vehicle: saline, higher = longer survival) was 112 % of control. For the same compound, the T/C (endpoint: median survival time, dose: 25.0 mg/kg/injection, schedule: Q01DX009 (ip), vehicle: Klucel (hydroxypropylcellulose) (HPC), higher = longer survival) was 100 % of control, the T/C (endpoint: median survival time, dose: 32.0 mg/kg/injection, schedule: Q01DX009 (ip), vehicle: water, higher = longer survival) was 171 % of control and the T/C (endpoint: median tumor weight (est.), dose: 8.0 mg/kg/injection, schedule: Q01DX009 (ip), vehicle: water, higher = larger tumour) was 47 % of control. For the same compound, the T/C (endpoint: median tumor weight (est.), dose: 12.0 mg/kg/injection, schedule: Q01DX009 (ip), vehicle: saline, higher = larger tumour) was 22 % of control and 43 % of control, the T/C (endpoint: median tumor weight (est.), dose: 16.0 mg/kg/injection, schedule: Q01DX009 (ip), vehicle: water, higher = larger tumour) was 33 % of control and the T/C (endpoint: median tumor weight (est.), dose: 24.0 mg/kg/injection, schedule: Q01DX009 (ip), vehicle: saline, higher = larger tumour) was 18 % of control and 27 % of control.

With `O` the T/C (endpoint: median survival time, dose: 50.0 mg/kg/injection, schedule: Q02DX009 (ip), vehicle: saline, higher = longer survival) was 94 % of control, the T/C (endpoint: median survival time, dose: 100.0 mg/kg/injection, schedule: Q02DX009 (ip), vehicle: saline, higher = longer survival) was 101 % of control and the T/C (endpoint: median survival time, dose: 200.0 mg/kg/injection, schedule: Q02DX009 (ip), vehicle: saline, higher = longer survival) was 118 % of control. The T/C (endpoint: median survival time, dose: 400.0 mg/kg/injection, schedule: Q02DX009 (ip), vehicle: saline, higher = longer survival) was 98 % of control.

With `Nc1ccc(N=Nc2ccccc2)c(N)c1` the T/C (endpoint: median survival time, dose: 50.0 mg/kg/injection, schedule: Q01DX009 (ip), vehicle: Klucel (hydroxypropylcellulose) (HPC), higher = longer survival) was 91 % of control and the T/C (endpoint: median survival time, dose: 100.0 mg/kg/injection, schedule: Q01DX009 (ip), vehicle: Klucel (hydroxypropylcellulose) (HPC), higher = longer survival) was 106 % of control.
